Reference: patent US6472421B1, “Methods for treating, preventing, and reducing the risk of the onset of alzheimer's disease using an HMG CoA reductase inhibitor” (Nymox Corporation, priority 1998, dated 2002)

Tests used:
Alzheimer's disease (AD) = settings: comparison figures, no source given; cited from earlier work
[1] = test system: Alzheimer's disease (AD) in patients over the age of 60; assay: Health care database study at three hospitals: frequency of AD by medication (ICD-9-CM codes); assay type: in vivo, human; settings: for Prevalence Of AD/1000 Loyola / Prevalence Of AD/1000 Phoenix / Prevalence Of AD/1000 Combined / Prevalence Of AD/1000 Hines: patients 60 years or over; for Prevalence Of AD/1000 Loyola: Loyola Medical Center; for Prevalence Of AD/1000 Phoenix: Phoenix Veterans Authority Medical Center; for Prevalence Of AD/1000 Combined: data from the three sites combined; for Prevalence Of AD/1000 Hines: Hines Veterans Authority Medical Center; for effect on prevalence / risk of AD (in words): patients over the age of 60, compared with total patient population
Excerpt: To perform the study, relational databases at three different hospitals (Loyola Medical Center (“Loyola”), Hines Veterans Authority Medical Center (“Hines”), and Phoenix Veterans Authority Medical Center (“Phoenix”)) were searched to obtain aggregate data about the frequency of AD. Each database included clinical information that facilitated identification of potential relationships between specific items. […] Patient privacy was protected by using only aggregate patient data.
Each database was sorted to exclude any subjects under the age of 60 and any entries that contained patients' names but no medical information pertinent to the study. This yielded a total patient sample size for the three databases of 63,296 patients.
The frequency of AD for each medication was then determined using ICD-9-CM codes.
Alzheimer's disease was identified under the ICD-9-CM code of 331.0, but because other codes also apply to AD, the codes 331.2, 290.0, 290.10-13, 290.20 and 290.3 were also included as AD cases based on interviews with the physicians at each center who diagnosed or oversaw the diagnosis of patients with AD and on their coding practices for AD. The diagnosis of AD was made according to the criteria of the National Institute of Neurological and Communicative Disorders and Stroke (NINCDS) and the Alzheimer's Disease and Related Disorders Association (ADRDA) Work Group (McKhann et al., “Clinical Diagnosis of Alzheimer's Disease: Report of the NINCDS-ADRDA Work Group under the Auspices of Department of Health and Human Services Task Force on Alzheimer's Disease,” Neurology, 34:939-944 (1984).) Each AD patient had received either a CT scan or MRI to exclude other diagnoses, and had been screened for other metabolic, toxic, or affective disorders that may produce dementia.
Statistics were determined by comparisons of proportions using chi square analyses. All statistics listed P values and 95% confidence intervals.

| Molecule | degree of reduction (of AD risk), other putative AD therapeutics (Alzheimer's disease (AD)) | Prevalence Of AD/1000 Loyola [1] | Prevalence Of AD/1000 Phoenix [1] | Prevalence Of AD/1000 Combined [1] | Prevalence Of AD/1000 Hines [1] | effect on prevalence / risk of AD (in words) [1] |
| --- | --- | --- | --- | --- | --- | --- |
| estrogen | 25-31% |  |  |  |  |  |
| CCC(C)(C)C(=O)O[C@H]1C[C@@H](C)C=C2C=C[C@H](C)[C@H](CC[C@@H]3C[C@@H](O)CC(=O)O3)[C@H]21 [Simvastatin, simvastatin] |  | 8.1 /1000 | 11.2 /1000 | 11.2 /1000 |  |  |
| CC(C)NCC(O)COc1ccc(CC(N)=O)cc1 (stereo not shown) [Atenolol, atenolol] |  | 19.2 /1000 | 19.0 /1000 | 14.8 /1000 | 7.1 /1000 | higher than that of the total patient cohort |
| NS(=O)(=O)c1cc(C(=O)O)c(NCc2ccco2)cc1Cl [Furosemide, furosemide] |  | 16.7 /1000 | 14.1 /1000 | 8.9 /1000 | 9.0 /1000 | did not show any significant reduction |
| COCCc1ccc(OCC(O)CNC(C)C)cc1 (stereo not shown) [Metoprolol, metoprolol] |  | 15.3 /1000 | 12.4 /1000 | 12.1 /1000 | 4.4 /1000 | higher than that of the total patient cohort |
| C[C@H](CS)C(=O)N1CCC[C@H]1C(=O)O [Captopril, captopril] |  | 13.6 /1000 | 10.6 /1000 | 10.6 /1000 | 8.4 /1000 | did not show any significant reduction |
| CC(C)NCC(O)COc1cccc2ccccc12 (stereo not shown) [Propanolol, propanolol] |  | 42.4 /1000 | 20.7 /1000 | 17.5 /1000 | 3.9 /1000 | higher than that of the total patient cohort |
| Cc1c(C)c2c(c(C)c1O)CC[C@@](C)(CCC[C@H](C)CCC[C@H](C)CCCC(C)C)O2 [alpha-tocopherol] | 52% |  |  |  |  |  |
| CC[C@H](C)C(=O)O[C@H]1C[C@H](O)C=C2C=C[C@H](C)[C@H](CC[C@@H](O)C[C@@H](O)CC(=O)O)[C@H]21 [Pravastatin, 1-naphthalene-hepatnoic acid, 1,2,6,7,8,8a-hexahydro-β,δ,6-trihydroxy-2-methyl-8-(2-methyl-1-oxobutoxy)] |  | 0 /1000 | 8.3 /1000 | 4.3 /1000 | 1.1 /1000 |  |
